We go through two compounds from patent publication US9671405B2, “Identifying taxane sensitivity in prostate cancer patients” (Cornell University, priority 2012, dated 2017).

Holding throughout (assay type): cell-based, human
Assay [1] concerns ARv5,6,7. The assay is described as follows: Nuclear localization of GFP-tagged ARv5,6,7 in M12 cells, confocal microscopy. The following applies: 10 nM R1881 2 h. The text has this:
(§1) Cells were then fixed, immunostained for tubulin, and imaged for GFP-AR and tubulin by confocal microscopy. Androgen receptor is shown as lighter staining (green in the original), while tubulin staining is darker but visible as lighter areas in the images (red in the original). Representative, high-magnification images from each condition are shown. […] Scale bar: 10 μm. FIG. 9D is a bar graph depicting the ratio of cells with nuclear androgen receptor over those with cytoplasmic androgen receptor for each condition. […] Relative mRNA expression of TMPRSS2 and FKBP51 was assessed by qPCR. Values were corrected to GAPDH and normalized to untreated M12 cells expressing control lentivirus (M12 lenti). […] Androgen receptor protein expression was detected by staining with anti-androgen receptor or anti-ARN-21 antibodies. […] Cells were then fixed, immunostained for tubulin, and imaged for GFP-AR and tubulin by confocal microscopy. […]
(§2) In addition, M12 cells stably expressing GFP-tagged AR-wt, AR or variants were generated in Or Giannakakou's laboratory. GFP^+ cells from all three androgen receptor cell lines were sorted using fluorescence activated cell sorting (FACS) on a BD FACSAria II cell sorter (BD Biosciences, Franklin Lakes, N.J., USA) and subsequently expanded in media containing G418 ([…]). […]

The subject of assay [2] is ARv7. The assay is described as follows: Nuclear localization of GFP-tagged ARv7 in M12 cells, confocal microscopy. The following applies: 10 nM R1881 2 hr.
Excerpt: as §1, §2

The test system of assay [3] is GEDI-captured circulating tumor cells from castration-resistant prostate cancer patients. As to the kind of experiment: On-chip ex-vivo taxane treatment of GEDI-captured patient circulating tumor cells, microtubule bundling as drug-target engagement. From the text:
(§3) One ml of spiked blood was then passed through each of three GEDI devices. […] Following drug treatment, cells were fixed and processed for immunofluorescence staining using antibodies against tubulin and CD45. DAPI was used as a DNA counterstain to evaluate nuclear integrity. […] Following drug treatment, the PSMA-captured cells were fixed and processed for immunofluorescence staining as in FIG. 5A with the addition of cytokeratin-18 as an alternative epithelial marker.
For ex-vivo drug treatment experiments, the blood sample from each patient was divided and 1 ml was flown to each of three GEDI devices simultaneously. […] At the end of treatment, the GEDI-captured cells were fixed with PHEMO buffer and processed for multiplex confocal microscopy following immunostaining with different cell surface and cytoplasmic antibodies as indicated. […] The percent of circulating tumor cells with evidence of microtubule bundling was calculated. […] In addition, DAPI counterstain was used to assess the presence of mitotic or apoptotic nuclei following drug treatment.
The GEDI-captured circulating tumor cells were tested in situ (i.e., while in the GEDI device) to evaluate their chemosensitivity to taxanes, and predict a patient's clinical response to therapy. […] Microtubule bundling is the first event induced by taxane treatment, resulting in downstream mitotic arrest and apoptotic cell death, and is therefore an appropriate marker of efficient taxane drug-target engagement.

Assay [4] deals with leucocytes. As to the kind of experiment: On-chip ex-vivo taxane treatment, microtubule bundling in leucocytes present on the chip. Conditions: FIG. 5F patient (patient 4), 50 nM paclitaxel ex-vivo on-chip.
Excerpt: as §3, with “FIG. 5A-5F illustrates on-chip assessment of effective drug-target engagement in viable GEDI-captured circulating tumor cells, and that tubulin responses to taxane treatment can be assessed in GEDI-captured cells. […] One” for “One”, “marker. […]” for “marker.”
For ex-vivo drug treatment experiments, the blood sample from each patient was divided and 1 ml was flown to each of three GEDI devices simultaneously. […] All circulating tumor cells (PSMA^+/CD45−/DAPI^+) were assessed for the presence of microtubule bundles as evidence of effective drug-target engagement. The percent of circulating tumor cells with evidence of microtubule bundling was calculated. In all samples analyzed, bundling was clearly apparent by the distinct shape, width, orientation and increased fluorescence intensity of microtubule bundles as compared with microtubules from untreated cells. […]

`C[C@]1(O)CC[C@H]2[C@@H]3CCC4=CC(=O)CCC4=C3C=C[C@@]21C` [R1881, Methyltrienolone]: in assay [1], the “nuclear accumulation of ARv5,6,7 induced by R1881” value is “did not induce any further nuclear accumulation”. Moreover, the “nuclear accumulation of ARv7 induced by R1881” value in assay [2] was “does not increase nuclear accumulation”.

For `CC(=O)O[C@H]1C(=O)[C@@]2(C)[C@H]([C@H](OC(=O)c3ccccc3)[C@]3(O)C[C@H](OC(=O)[C@H](O)[C@@H](NC(=O)c4ccccc4)c4ccccc4)C(C)=C1C3(C)C)[C@]1(OC(C)=O)CO[C@@H]1C[C@@H]2O` [paclitaxel], the “microtubule bundling of circulating tumor cells” value in assay [3] (patient 2, 100 nM or 1 uM paclitaxel ex-vivo on-chip) is on record as “display microtubule bundling”. For the same compound, in assay [3] (patient 4, 50 nM paclitaxel ex-vivo on-chip), the “response of circulating tumor cells to drug treatment” value was “heterogeneous response”. For the same compound, the “apoptotic nuclei in circulating tumor cells” value in assay [3] (patient docetaxel progressor on cabazitaxel, ex vivo 24 hr) was “exhibited apoptotic nuclei”. Moreover, the “effect on microtubule cytoskeleton of captured circulating tumor cells” value in assay [3] (patient of FIG. 5B (docetaxel progressor), 100 nM ex vivo, 24 hr) is “clear evidence of microtubule bundling”. For the same compound, the “mitotic arrest of captured circulating tumor cells” value in assay [3] (same patient as FIG. 5B (FIG. 5C), ex vivo 24 hr) is on record as “signs of aberrant mitotic arrest”. The “leucocytes present on the chip showing microtubule bundling” value in assay [4] is around 100%.
